{
  "source": "patent US9617283B2",
  "about": "“Bicyclic heterocycle compounds and their uses in therapy” (ASTEX THERAPEUTICS LIMITED, priority 2012, dated 2017)",
  "key": {"[1]": {"system": "EVSA-T (human breast carcinoma)", "experiment": "Anti-proliferative activity, Alamar Blue assay, EVSA-T", "type": "cell-based"}, "[2]": {"target": "T1, BIR3 domain of human XIAP (residues 252-350) (Homo sapiens, UniProt P98170)", "T1 construct": "BIR3 domain of human XIAP (residues 252-350); His-tag (cleaved yes); made in house; host or cells: Escherichia coli", "T1 sequence (P98170 252-350)": "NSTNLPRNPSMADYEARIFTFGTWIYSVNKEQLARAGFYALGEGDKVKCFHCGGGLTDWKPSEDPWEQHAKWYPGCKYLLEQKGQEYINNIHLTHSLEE", "experiment": "XIAP in vitro competitive displacement binding assay (fluorescence polarization)", "conditions": "1 h, percent inhibition (PI) at 0.04 μM; read-out: Xiap IC50 or PI μM"}, "[3]": {"conditions": "Homo sapiens, EVSA-T, 72 h, EVSA-T cell line, 72 hours, Alamar Blue; read-out: EVSA-T prolif"}, "[4]": {"conditions": "Homo sapiens, EVSA-T; read-out: EC50 in EVSA-T cell line assays"}},
  "note": "Counter-ions that a name gives are not always drawn. Like-named read-outs stand apart in the source and are kept apart here.",
  "data": [
    {"smiles": "CCC1CN(C[C@H]2CN[C@H](C)CN2CC(=O)N2CC(C)(C)c3ncc([C@@H](O)c4ccc(F)cc4)cc32)C(=O)CO1", "note": "(single isomer, unassigned) [Example 110, (R or S)-6-ethyl-4-{[(2R,5R)-1-(2-{6-[(S)-(4-Fluorophenyl)(hydroxy)methyl]-3,3-dimethyl-1H,2H,3H-pyrrolo[3,2-b]pyridin-1-yl}-2-oxoethyl)-5-methylpiperazin-2-yl]methyl}morpholin-3-one dihydrochloride]", "values": [
      {"measurement": "EC50", "setting": "[1]; EVSA-T cell line, 72 hours, Alamar Blue; dihydrochloride; read-out: EVSA-T prolif", "result": 290, "unit": "nM"},
      {"measurement": "EC50", "setting": "[1]; Homo sapiens, EVSA-T, read-out: EC50 in EVSA-T cell line assays", "result": "< 1000", "unit": "nM"},
      {"measurement": "inhibition at 0.04 µM", "setting": "[2]", "result": 48, "unit": "%"}
    ]},
    {"smiles": "C[C@@H]1CN(CC(=O)N2CC(C)(C)c3nnc(Cc4ccc(F)cc4F)cc32)[C@@H](CN2Cc3ccc(O)cc3C2=O)CN1", "note": "[Example 115, 2-{[(2R,5R)-1-(2-{3-[(2,4-Difluorophenyl)methyl]-7,7-dimethyl-5H,6H,7H-pyrrolo[3,2-c]pyridazin-5-yl}-2-oxoethyl)-5-methylpiperazin-2-yl]methyl}-6-hydroxy-2,3-dihydro-1H-isoindol-1-one dihydrochloride]", "values": [
      {"measurement": "inhibition at 0.04 µM", "setting": "[2]", "result": 78, "unit": "%"}
    ]},
    {"smiles": "CC1CC(=O)N(C[C@H]2CN[C@H](C)CN2CC(=O)N2CC(C)(C)c3ncc(Cc4ccc(F)cc4)cc32)C1", "note": "(stereo partly drawn) [Example 6, 1-{[(2R,5R)-1-(2-{6-[(4-Fluorophenyl)methyl]-3,3-dimethyl-1H,2H,3H-pyrrolo[3,2-b]pyridin-1-yl}-2-oxoethyl)-5-methylpiperazin-2-yl]methyl}-4-methylpyrrolidin-2-one dihydrochloride]", "values": [
      {"measurement": "EC50", "setting": "[1]; [3]", "result": 1.1, "unit": "nM"},
      {"measurement": "EC50", "setting": "[1]; [4]", "result": "< 1000", "unit": "nM"},
      {"measurement": "inhibition at 0.04 µM", "setting": "[2]", "result": 48, "unit": "%"}
    ]},
    {"smiles": "CC1=C(C)C(=O)N(C[C@H]2CN[C@H](C)CN2CC(=O)N2CC(C)(C)c3cnc(Cc4ccc(F)cc4F)cc32)C1", "note": "[Example 33, 1-{[(2R,5R)-1-(2-{6-[(2,4-Difluorophenyl)methyl]-3,3-dimethyl-1H,2H,3H-pyrrolo[3,2-c]pyridin-1-yl}-2-oxoethyl)-5-methylpiperazin-2-yl]methyl}-3,4-dimethyl-2,5-dihydro-1H-pyrrol-2-one dihydrochloride]", "values": [
      {"measurement": "EC50", "setting": "[1]; [3]", "result": 1.1, "unit": "nM"},
      {"measurement": "EC50", "setting": "[1]; [4]", "result": "< 1000", "unit": "nM"},
      {"measurement": "inhibition at 0.04 µM", "setting": "[2]", "result": 81, "unit": "%"}
    ]},
    {"smiles": "CCCC(F)(F)c1cc2c(cn1)C(C)(C)CN2C(=O)CN1C[C@@H](C)NC[C@@H]1CN1C[C@@H](C)CC1=O", "note": "[Example 75, (4S)-1-{[(2R,5R)-1-{2-[6-(1,1-Difluorobutyl)-3,3-dimethyl-1H,2H,3H-pyrrolo[3,2-c]pyridin-1-yl]-2-oxoethyl}-5-methylpiperazin-2-yl]methyl}-4-methylpyrrolidin-2-one dihydrochloride]", "values": [
      {"measurement": "EC50", "setting": "[1]; [3]", "result": 14, "unit": "nM"},
      {"measurement": "EC50", "setting": "[1]; [4]", "result": "< 1000", "unit": "nM"},
      {"measurement": "inhibition at 0.04 µM", "setting": "[2]", "result": 75, "unit": "%"}
    ]},
    {"smiles": "C[C@@H]1CC(=O)N(C[C@H]2CN[C@H](C)CN2CC(=O)N2CC(C)(C)c3cnc(Cc4ccc(F)cc4F)cc32)C1", "note": "[Example 71, (4R)-1-{[(2R,5R)-1-(2-{6-[(2,4-Difluorophenyl)methyl]-3,3-dimethyl-1H,2H,3H-pyrrolo[3,2-c]pyridin-1-yl}-2-oxoethyl)-5-methylpiperazin-2-yl]methyl}-4-methylpyrrolidin-2-one dihydrochloride]", "values": [
      {"measurement": "EC50", "setting": "[1]; [3]", "result": 2.5, "unit": "nM"},
      {"measurement": "EC50", "setting": "[1]; [4]", "result": "< 1000", "unit": "nM"},
      {"measurement": "inhibition at 0.04 µM", "setting": "[2]", "result": 64, "unit": "%"}
    ]},
    {"smiles": "C[C@@H]1CN(CC(=O)N2CC(C)(C)c3ncc([C@H](O)c4ccc(F)cc4)cc32)[C@@H](CN2Cc3ccccc3C2=O)CN1", "note": "[Example 84, 2-{[(2R,5R)-1-(2-{6-[(R)-(4-Fluorophenyl)(hydroxy)methyl]-3,3-dimethyl-1H,2H,3H-pyrrolo[3,2-b]pyridin-1-yl}-2-oxoethyl)-5-methylpiperazin-2-yl]methyl}-2,3-dihydro-1H-isoindol-1-one dihydrochloride]", "values": [
      {"measurement": "EC50", "setting": "[1]; [3]", "result": 150, "unit": "nM"},
      {"measurement": "EC50", "setting": "[1]; [4]", "result": "< 1000", "unit": "nM"},
      {"measurement": "inhibition at 0.04 µM", "setting": "[2]", "result": 51, "unit": "%"}
    ]},
    {"smiles": "CCCC(F)(F)c1cc2c(cn1)C(C)(C)CN2C(=O)CN1C[C@@H](C)NC[C@@H]1CN1C[C@H](C)OCC1=O", "note": "[Example 26, (6S)-4-{[(2R,5R)-1-{2-[6-(1,1-Difluorobutyl)-3,3-dimethyl-1H,2H,3H-pyrrolo[3,2-c]pyridin-1-yl]-2-oxoethyl}-5-methylpiperazin-2-yl]methyl}-6-methylmorpholin-3-one, dihydrochloride]", "values": [
      {"measurement": "EC50", "setting": "[1]; [3]", "result": 27, "unit": "nM"},
      {"measurement": "EC50", "setting": "[1]; [4]", "result": "< 1000", "unit": "nM"},
      {"measurement": "inhibition at 0.04 µM", "setting": "[2]", "result": 60, "unit": "%"}
    ]},
    {"smiles": "C[C@@H]1CN(CC(=O)N2CC(C)(C)c3cnc(Cc4ccc(F)cc4F)cc32)[C@@H](CN2C[C@@H](C)N(C)CC2=O)CN1", "note": "[Example 85, (5R)-1-{[(2R,5R)-1-(2-{6-[(2,4-Difluorophenyl)methyl]-3,3-dimethyl-1H,2H,3H-pyrrolo[3,2-c]pyridin-1-yl}-2-oxoethyl)-5-methylpiperazin-2-yl]methyl}-4,5-dimethylpiperazin-2-one dihydrochloride]", "values": [
      {"measurement": "EC50", "setting": "[1]; [3]", "result": 4.5, "unit": "nM"},
      {"measurement": "EC50", "setting": "[1]; [4]", "result": "< 1000", "unit": "nM"},
      {"measurement": "inhibition at 0.04 µM", "setting": "[2]", "result": 45, "unit": "%"}
    ]},
    {"smiles": "CCC1CN(C[C@H]2CN[C@H](C)CN2CC(=O)N2CC(C)(C)c3cnc(Cc4ccc(F)cc4F)cc32)C(=O)CO1", "note": "(single isomer, unassigned) [Example 80, 4-{[(2R,5R)-1-(2-{6-[(2,4-Difluorophenyl)methyl]-3,3-dimethyl-1H,2H,3H-pyrrolo[3,2-c]pyridin-1-yl}-2-oxoethyl)-5-methylpiperazin-2-yl]methyl}-(R or S)-6-ethylmorpholin-3-one dihydrochloride]", "values": [
      {"measurement": "EC50", "setting": "[1]; [3]", "result": 1.8, "unit": "nM"},
      {"measurement": "EC50", "setting": "[1]; [4]", "result": "< 1000", "unit": "nM"},
      {"measurement": "inhibition at 0.04 µM", "setting": "[2]", "result": 46, "unit": "%"}
    ]},
    {"smiles": "COc1ccc2c(c1)CN(C[C@H]1CN[C@H](C)CN1CC(=O)N1CC(C)(C)c3cnc(Cc4ccc(F)cc4)cc31)C2=O", "note": "[Example 92, 2-{[(2R,5R)-1-(2-{6-[(4-Fluorophenyl)methyl]-3,3-dimethyl-1H,2H,3H-pyrrolo[3,2-c]pyridin-1-yl}-2-oxoethyl)-5-methylpiperazin-2-yl]methyl}-5-methoxy-2,3-dihydro-1H-isoindol-1-one dihydrochloride]", "values": [
      {"measurement": "EC50", "setting": "[1]; [3]", "result": 0.26, "unit": "nM"},
      {"measurement": "EC50", "setting": "[1]; [4]", "result": "< 1000", "unit": "nM"},
      {"measurement": "inhibition at 0.04 µM", "setting": "[2]", "result": 93, "unit": "%"}
    ]},
    {"smiles": "C[C@@H]1CN(CC(=O)N2CC(C)(C)c3ncc(Cc4ccc(F)cc4)cc32)[C@@H](CN2CC(C)(C)CC2=O)CN1", "note": "[Example 1, 1-{[(2R,5R)-1-(2-{6-[(4-Fluorophenyl)methyl]-3,3-dimethyl-1H,2H,3H-pyrrolo[3,2-b]pyridin-1-yl}-2-oxoethyl)-5-methylpiperazin-2-yl]methyl}-4,4-dimethylpyrrolidin-2-one dihydrochloride]", "values": [
      {"measurement": "EC50", "setting": "[1]; [3]", "result": 2.2, "unit": "nM"},
      {"measurement": "EC50", "setting": "[1]; [4]", "result": "< 1000", "unit": "nM"},
      {"measurement": "inhibition at 0.04 µM", "setting": "[2]", "result": 54, "unit": "%"}
    ]},
    {"smiles": "C[C@@H]1CN(CC(=O)N2CC(C)(C)c3ncc(Cc4ccc(F)cc4F)cc32)[C@@H](CN2Cc3ccc(O)cc3C2=O)CN1", "note": "[Example 116, 2-{[(2R,5R)-1-(2-{6-[(2,4-Difluorophenyl)methyl]-3,3-dimethyl-1H,2H,3H-pyrrolo[3,2-b]pyridin-1-yl}-2-oxoethyl)-5-methylpiperazin-2-yl]methyl}-6-hydroxy-2,3-dihydro-1H-isoindol-1-one dihydrochloride]", "values": [
      {"measurement": "inhibition at 0.04 µM", "setting": "[2]", "result": 79, "unit": "%"}
    ]},
    {"smiles": "C[C@@H]1CN(CC(=O)N2CC(C)(C)c3nnc(Cc4ccc(F)cc4F)cc32)[C@@H](CN2Cc3c(O)cccc3C2=O)CN1", "note": "[Example 117, 2-{[(2R,5R)-1-(2-{3-[(2,4-Difluorophenyl)methyl]-7,7-dimethyl-5H,6H,7H-pyrrolo[3,2-c]pyridazin-5-yl}-2-oxoethyl)-5-methylpiperazin-2-yl]methyl}-4-hydroxy-2,3-dihydro-1H-isoindol-1-one dihydrochloride]", "values": [
      {"measurement": "inhibition at 0.04 µM", "setting": "[2]", "result": 78, "unit": "%"}
    ]}
  ]
}
